In assay [1] the target is T1, Tie2 receptor tyrosine kinase (Homo sapiens, UniProt Q02763).
T1 construct: consist of only the intracellular portion C-terminal portion of the respective receptor, within which is found the kinase domain; made in house; host or cells: baculovirus/Sf21 insect cells, used as cleared lysate
In words: In vitro receptor tyrosine kinase inhibition assay (Test (a), ELISA based). Type of assay: biochemical. The conditions noted are these: recombinant human kinase domain lysate, synthetic peptide substrate, ATP 5 micromolar or Km. The method, then:
a. In Vitro Receptor Tyrosine Kinase Inhibition Assay
To test for inhibition of Tie2 receptor tyrosine kinase, compounds are evaluated in a non-cell based protein kinase assay by their ability to inhibit the protein kinase enzyme phosphorylation of a tyrosine containing polypeptide substrate in an ELISA based microtitre plate assay. In this particular case, the assay was to determine the IC50, for three different recombinant human tyrosine kinases Tie2, KDR and Flt.
To facilitate production of the tyrosine kinases, recombinant receptor genes were produced using standard molecular biology cloning and mutagenesis techniques. […]
Constitutive kinase activity of these recombinant proteins was determined by their ability to phosphorylate a synthetic peptide (made up of a random co-polymer of Glutamic Acid, Alanine and Tyrosine in the ratio of 6:3:1). […]
The immobilised phospho-peptide product of the reaction was detected by immunological methods. […] Following extensive washing with PBS-T, HRP activity in each well of the plate was measured colorimetrically using 22′-Azino-di-[3-ethylbenzthiazoline sulfonate (6)] diammonium salt crystals ABTS (Sigma P4922—prepared as per manufactures instructions) as a substrate incubated for 30-45 minutes to allow colour development, before 100 ul of 1M H2SO4 was added to stop the reaction. […]
A general note: An ELISA detects its analyte on a solid surface through an enzyme-linked reagent.

Another assay deals with T2, Tie2 receptor (Homo sapiens, UniProt Q02763).
T2 construct: one can use natural cell lines or primary cells which are known to express the receptor of choice; endogenous in cells; host or cells: EA.hy926/B3 cells (HUVEC named as alternative)
As to the kind of experiment: Cellular Tie2 autophosphorylation assay (Test (b)). Type of assay: cell-based. The conditions noted are these: Ang1 ligand stimulated Tie2 autophosphorylation, e.g. EA.hy926/B3 cells, western blot. From the text: b. Cellular Tie2 Autophosphorylation Assay
This assay is based on measuring the ability of compounds to inhibit autophosphorylation of the Tie2 receptor which normally leads to the production of “activated” receptor that in turn initiates the particular signal transduction pathways associated with the receptor function.
Autophosphorylation can be achieved by a number of means. It is known that expression of recombinant kinase domains in baculoviral systems can lead to the production of phosphorylated and activated receptor. […] In these cases the natural, external cell surface domain of the receptor has been replaced with that of a domain which is known to be readily dimerised via the addition of the appropriate ligand (e.g. TrkA-Tie2/NGF ligand (Marron, M. B., et al., 2000 Journal of Biological Chemistry: 275:39741-39746) or C-fms-Tie-1/CSF-1 ligand (Kontos, C. D., et al., 2002 Molecular and Cellular Biology: 22, 1704-1713). Thus when the chimaeric receptor expressed in a host cell line and the respective ligand is added, this induces autophosphorylation of the chimeric receptor's kinase domain. This approach has the advantage of often allowing a known (and often easily obtained) ligand to be used instead of having to identify and isolate the natural ligand for each receptor of interest. […]
In general terms: A western blot detects proteins with antibodies after separation by electrophoresis.

For orientation: IC50 means the midpoint of a concentration-inhibition curve.

T2 sequence (Q02763 23-1124): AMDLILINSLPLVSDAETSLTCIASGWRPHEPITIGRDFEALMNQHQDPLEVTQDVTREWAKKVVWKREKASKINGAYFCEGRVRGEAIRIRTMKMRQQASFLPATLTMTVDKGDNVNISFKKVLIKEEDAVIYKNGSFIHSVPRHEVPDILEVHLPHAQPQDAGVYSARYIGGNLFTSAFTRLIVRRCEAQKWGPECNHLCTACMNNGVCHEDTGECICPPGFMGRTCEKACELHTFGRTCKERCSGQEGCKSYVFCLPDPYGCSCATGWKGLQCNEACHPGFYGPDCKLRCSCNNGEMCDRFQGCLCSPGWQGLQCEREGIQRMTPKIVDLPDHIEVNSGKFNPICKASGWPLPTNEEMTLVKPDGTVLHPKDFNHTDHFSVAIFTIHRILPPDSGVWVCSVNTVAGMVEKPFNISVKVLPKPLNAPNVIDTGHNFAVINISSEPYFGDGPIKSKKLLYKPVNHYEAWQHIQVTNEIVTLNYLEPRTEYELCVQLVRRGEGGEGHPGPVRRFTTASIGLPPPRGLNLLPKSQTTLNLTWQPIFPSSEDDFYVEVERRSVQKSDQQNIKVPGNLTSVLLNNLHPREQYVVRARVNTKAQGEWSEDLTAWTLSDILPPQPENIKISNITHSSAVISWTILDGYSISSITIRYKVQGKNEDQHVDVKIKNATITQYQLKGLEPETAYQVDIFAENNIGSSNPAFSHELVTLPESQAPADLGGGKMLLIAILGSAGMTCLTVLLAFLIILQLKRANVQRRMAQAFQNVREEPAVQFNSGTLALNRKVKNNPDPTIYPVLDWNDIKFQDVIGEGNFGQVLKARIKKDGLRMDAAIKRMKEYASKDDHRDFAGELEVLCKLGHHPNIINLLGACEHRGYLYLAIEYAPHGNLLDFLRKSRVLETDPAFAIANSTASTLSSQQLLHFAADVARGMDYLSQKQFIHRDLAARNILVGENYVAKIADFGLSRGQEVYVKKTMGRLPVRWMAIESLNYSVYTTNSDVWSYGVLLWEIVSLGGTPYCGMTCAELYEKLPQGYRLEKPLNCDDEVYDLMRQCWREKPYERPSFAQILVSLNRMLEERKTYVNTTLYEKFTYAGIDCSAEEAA
T1 sequence (Q02763 770-1124 limits assumed): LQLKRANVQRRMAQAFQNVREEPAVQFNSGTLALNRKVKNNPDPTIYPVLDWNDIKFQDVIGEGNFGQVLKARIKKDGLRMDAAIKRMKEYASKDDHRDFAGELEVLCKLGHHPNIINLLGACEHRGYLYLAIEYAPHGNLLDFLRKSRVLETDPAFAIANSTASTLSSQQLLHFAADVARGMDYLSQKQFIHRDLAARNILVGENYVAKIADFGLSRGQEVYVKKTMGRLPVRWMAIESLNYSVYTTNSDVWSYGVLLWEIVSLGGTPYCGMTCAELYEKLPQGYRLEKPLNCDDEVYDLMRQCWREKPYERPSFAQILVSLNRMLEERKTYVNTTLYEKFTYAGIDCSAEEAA

`Cn1cnc(-c2cccc(NC(=O)Nc3cccc(F)c3)c2)c1-c1cc2c(N)ncnc2s1` [Example 1, N-{3-[5-(4-Aminothieno[2,3-d]pyrimidin-6-yl)-1-methyl-1H-imidazol-4-yl]phenyl}-N′-(3-fluorophenol)urea]: the IC50 in assay [1] was 16 µM; against Tie2 receptor, 0.4 µM.

For the origin of these results see patent publication US7476677B2, “Substituted thieno- and thiazolo- [2,3-d]pyrimidines and [2,3-c]pyridines as inhibitors of Tie2” (AstraZeneca AB, priority 2004, dated 2009).
